Data as given in patent US4293694A, “Pyrido[3,2,1-jk]carbazols” (Otsuka Pharmaceutical Co., Ltd., priority 1979, dated 1981).
In brackets after ≈: the same amount, converted by molar mass. Read-outs that look alike come from different tables or passages of the source.

Key:
[1] = system: Bacillus subtilis ATCC 6633; assay: Antimicrobial activity, serial dilution method on agar plate; format: cell-based; details: ATCC6633, read-out: Minimum Inhibitory Concentration (MIC)
[2] = system: Bacillus anthracis; assay: microbe, parasite or virus in culture; format: cell-based; details: read-out: Minimum Inhibitory Concentration (MIC)
[3] = system: Bacillus cereus ATCC 11778; assay: Antimicrobial activity, serial dilution method on agar plate; format: cell-based; details: ATCC11778, read-out: Minimum Inhibitory Concentration (MIC)
[4] = system: Staphyrococcus aureus FDA 209p; assay: as above; format: cell-based; details: read-out: Minimum Inhibitory Concentration (MIC)
[5] = system: Staphyrococcus aureus Newmann; assay: as above; format: cell-based; details: read-out: Minimum Inhibitory Concentration (MIC)
[6] = system: Streptococcus faecalis IFO 12580; assay: as above; format: cell-based; details: Enterococcus faecalis, IFO12580, read-out: Minimum Inhibitory Concentration (MIC)
[7] = system: Streptomyces viridans; assay: as above; format: cell-based; details: read-out: Minimum Inhibitory Concentration (MIC)
[8] = system: Sarcina lutea ATCC 9341; assay: as above; format: cell-based; details: Micrococcus luteus, ATCC9341, read-out: Minimum Inhibitory Concentration (MIC)
[9] = system: Micrococcus flavus ATCC 10240a; assay: as above; format: cell-based; details: ATCC10240A, read-out: Minimum Inhibitory Concentration (MIC)
[10] = system: Serratia marcescens ATCC 14756; assay: as above; format: cell-based; details: ATCC14756, read-out: Minimum Inhibitory Concentration (MIC)
[11] = system: Salmonella typhimurium kh; assay: as above; format: cell-based; details: Salmonella enterica, read-out: Minimum Inhibitory Concentration (MIC)
[12] = system: Enterbactor cloacae 2; assay: as above; format: cell-based; details: read-out: Minimum Inhibitory Concentration (MIC)
[13] = system: Enterbactor aerogenes IFO 12979; assay: as above; format: cell-based; details: read-out: Minimum Inhibitory Concentration (MIC)
[14] = system: Klebsiella pneumoniae ST-101; assay: as above; format: cell-based; details: ST101, read-out: Minimum Inhibitory Concentration (MIC)
[15] = system: Esherichia coli NIHJ; assay: as above; format: cell-based; details: read-out: Minimum Inhibitory Concentration (MIC)
[16] = system: Esherichia coli NIHJ JC-2; assay: as above; format: cell-based; details: read-out: Minimum Inhibitory Concentration (MIC)
[17] = system: Proteus mirabilis 1287; assay: as above; format: cell-based; details: read-out: Minimum Inhibitory Concentration (MIC)
[18] = system: Pseudomonas aeruginosa ATCC 10145; assay: as above; format: cell-based; details: ATCC10145, read-out: Minimum Inhibitory Concentration (MIC)
[19] = system: Candida albicans KYU; assay: as above; format: cell-based; details: read-out: Minimum Inhibitory Concentration (MIC)
[20] = Acute toxicity; details: rat, in vivo, rats, dd strain, 18 to 22 g, fasted 12 hours
Description: Further, the acute toxicity of the compounds of the present invention having the formula (I) was determined by intravenous administration (i.v.) and oral administration (p.o.) in 5 to 6 groups of rats (dd strain; body weight, 18 to 22 g; 10 rats in each group) which had been fasted for 12 hours prior to the test.

[21] = iv, read-out: LD50 (50% lethal dose), i.v.
[22] = po, read-out: LD50 (50% lethal dose), p.o.

Compound | MIC [1] [µg/mL] | MIC [2] [µg/mL] | MIC [3] [µg/mL] | MIC [4] [µg/mL] | MIC [5] [µg/mL] | MIC [6] [µg/mL] | MIC [7] [µg/mL] | MIC [8] [µg/mL] | MIC [9] [µg/mL] | MIC [10] [µg/mL] | MIC [11] [µg/mL] | MIC [12] [µg/mL] | MIC [13] [µg/mL] | MIC [14] [µg/mL] | MIC [15] [µg/mL] | MIC [16] [µg/mL] | MIC [17] [µg/mL] | MIC [18] [µg/mL] | MIC [19] [µg/mL] | LD50 [20, 21] [mg/kg] | other results
O=C(O)c1cn2c3c(cc(F)cc3c1=O)C1CCCCC12 (stereo not shown) [Compound 1, 2-fluoro-7a,8,9,10,11,11a-hexahydro-4-oxo-4H-pyrido[3,2,1-jk]carbazol-5-carboxylic acid] | 1.6 (≈ 5.57 µM) | 3.2 (≈ 11.1 µM) | 25 (≈ 87 µM) | 6.3 (≈ 21.9 µM) | 6.3 (≈ 21.9 µM) | 100 (≈ 348 µM) | 100 (≈ 348 µM) | 50 (≈ 174 µM) | 50 (≈ 174 µM) | 3.2 (≈ 11.1 µM) | 6.3 (≈ 21.9 µM) | 3.2 (≈ 11.1 µM) | 3.2 (≈ 11.1 µM) | 3.2 (≈ 11.1 µM) | 6.3 (≈ 21.9 µM) | 6.3 (≈ 21.9 µM) | 12.5 (≈ 43.5 µM) | > 100 | > 500 | 130 | LD50 [20, 22]: 5000 mg/kg
O=C(O)c1cn2c3c(cccc3c1=O)C1CCCCC12 (stereo not shown) [Compound 2, 7a,8,9,10,11,11a-Hexahydro-4-oxo-4H-pyrido[3,2,1-jk]carbazol-5-carboxylic acid] | 12.5 (≈ 46.4 µM) | 25 (≈ 92.8 µM) | 100 (≈ 371 µM) | 25 (≈ 92.8 µM) | 25 (≈ 92.8 µM) | > 100 | > 100 | 100 (≈ 371 µM) | 100 (≈ 371 µM) | 12.5 (≈ 46.4 µM) | 25 (≈ 92.8 µM) | 12.5 (≈ 46.4 µM) | 12.5 (≈ 46.4 µM) | 12.5 (≈ 46.4 µM) | 25 (≈ 92.8 µM) | 25 (≈ 92.8 µM) | 50 (≈ 186 µM) | > 100 | > 500 | 120 | LD50 [20, 22]: 5000 mg/kg
CCOC(=O)c1cn2c3c(cc(F)cc3c1=O)C1CCCCC12 (stereo not shown) [Compound 3, ethyl 2-fluoro-7a,8,9,10,11,11a-hexahydro-4-oxo-4H-pyrido-[3,2,1-jk]carbazol-5-carboxylate] | 6.3 (≈ 20 µM) | 50 (≈ 159 µM) | 100 (≈ 317 µM) | 25 (≈ 79.3 µM) | 25 (≈ 79.3 µM) | > 100 | > 100 | 100 (≈ 317 µM) | 100 (≈ 317 µM) | 25 (≈ 79.3 µM) | 25 (≈ 79.3 µM) | 12.5 (≈ 39.6 µM) | 25 (≈ 79.3 µM) | 12.5 (≈ 39.6 µM) | 25 (≈ 79.3 µM) | 12.5 (≈ 39.6 µM) | 25 (≈ 79.3 µM) | > 100 | > 500 | 80 | LD50 [20, 22]: 3000 mg/kg
COc1cc2c3c(c1)c(=O)c(C(=O)O)cn3C1CCCCC21 (stereo not shown) [Compound 4, 2-Methoxy-7a,8,9,10,11,11a-hexahydro-4-oxo-4H-pyrido[3,2,1-jk]carbazol-5-carboxylic acid] | 3.2 (≈ 10.7 µM) | 6.3 (≈ 21 µM) | 12.5 (≈ 41.8 µM) | 12.5 (≈ 41.8 µM) | 12.5 (≈ 41.8 µM) | 100 (≈ 334 µM) | 100 (≈ 334 µM) | 100 (≈ 334 µM) | 100 (≈ 334 µM) | 12.5 (≈ 41.8 µM) | 12.5 (≈ 41.8 µM) | 6.3 (≈ 21 µM) | 6.3 (≈ 21 µM) | 6.3 (≈ 21 µM) | 12.5 (≈ 41.8 µM) | 12.5 (≈ 41.8 µM) | 25 (≈ 83.5 µM) | > 100 | > 500 | 130 | LD50 [20, 22]: 4000 mg/kg
Cc1cc(C)c2c(=O)c(C(=O)O)cn3c2c1C1CCCCC13 (stereo not shown) [Compound 5, 1,3-Dimethyl-7a,8,9,10,11,11a-hexahydro-4-oxo-4H-pyrido[3,2,1-jk]carbazol-5-carboxylic acid] | 6.3 (≈ 21.2 µM) | 6.3 (≈ 21.2 µM) | 25 (≈ 84.1 µM) | 6.3 (≈ 21.2 µM) | 6.3 (≈ 21.2 µM) | > 100 | > 100 | 100 (≈ 336 µM) | 100 (≈ 336 µM) | 6.3 (≈ 21.2 µM) | 12.5 (≈ 42 µM) | 6.3 (≈ 21.2 µM) | 12.5 (≈ 42 µM) | 12.5 (≈ 42 µM) | 12.5 (≈ 42 µM) | 12.5 (≈ 42 µM) | 12.5 (≈ 42 µM) | > 100 | > 500 | 120 | LD50 [20, 22]: 3000 mg/kg
O=C(O)c1cn2c3c(ccc([N+](=O)[O-])c3c1=O)C1CCCCC12 (stereo not shown) [Compound 6, 3-nitro-7a,8,9,10,11,11a-hexahydro-4-oxo-4H-pyrido[3,2,1-jk]carbazol-5-carboxylic acid] | 3.2 (≈ 10.2 µM) | 12.5 (≈ 39.8 µM) | 12.5 (≈ 39.8 µM) | 12.5 (≈ 39.8 µM) | 12.5 (≈ 39.8 µM) | > 100 | > 100 | 50 (≈ 159 µM) | 50 (≈ 159 µM) | 6.3 (≈ 20 µM) | 12.5 (≈ 39.8 µM) | 6.3 (≈ 20 µM) | 6.3 (≈ 20 µM) | 6.3 (≈ 20 µM) | 6.3 (≈ 20 µM) | 12.5 (≈ 39.8 µM) | 12.5 (≈ 39.8 µM) | > 100 | > 500 | 110 | LD50 [20, 22]: 4000 mg/kg
Nc1ccc2c3c1c(=O)c(C(=O)O)cn3C1CCCCC21 (stereo not shown) [Compound 7, 3-amino-7a,8,9,10,11,11a-hexahydro-4-oxo-4H-pyrido[3,2,1-jk]carbazol-5-carboxylic acid] | 6.3 (≈ 22.2 µM) | 12.5 (≈ 44 µM) | 50 (≈ 176 µM) | 50 (≈ 176 µM) | 50 (≈ 176 µM) | > 100 | > 100 | > 100 | > 100 | 12.5 (≈ 44 µM) | 12.5 (≈ 44 µM) | 12.5 (≈ 44 µM) | 12.5 (≈ 44 µM) | 12.5 (≈ 44 µM) | 25 (≈ 87.9 µM) | 50 (≈ 176 µM) | 50 (≈ 176 µM) | > 100 | > 500 | 115 | LD50 [20, 22]: 4500 mg/kg
CC(=O)Nc1ccc2c3c1c(=O)c(C(=O)O)cn3C1CCCCC21 (stereo not shown) [Compound 8, 3-acetylamino-7a,8,9,10,11,11a-hexahydro-4-oxo-4H-pyrido[3,2,1-jk]carbazol-5-carboxylic acid] | 3.2 (≈ 9.81 µM) | 6.3 (≈ 19.3 µM) | 50 (≈ 153 µM) | 12.5 (≈ 38.3 µM) | 12.5 (≈ 38.3 µM) | 100 (≈ 306 µM) | 100 (≈ 306 µM) | 50 (≈ 153 µM) | 50 (≈ 153 µM) | 3.2 (≈ 9.81 µM) | 6.3 (≈ 19.3 µM) | 6.3 (≈ 19.3 µM) | 6.3 (≈ 19.3 µM) | 6.3 (≈ 19.3 µM) | 12.5 (≈ 38.3 µM) | 12.5 (≈ 38.3 µM) | 25 (≈ 76.6 µM) | > 100 | > 500 | 110 | LD50 [20, 22]: 3500 mg/kg
O=C(OCCBr)c1cn2c3c(cc(F)cc3c1=O)C1CCCCC12 (stereo not drawn) [Compound 9, β-bromoethyl 2-fluoro-7a,8,9,10,11,11a-hexahydro-4-oxo-4H-pyrido[3,2,1-jk]carbazol-5-carboxylate] | 12.5 (≈ 31.7 µM) | 50 (≈ 127 µM) | 100 (≈ 254 µM) | 50 (≈ 127 µM) | 50 (≈ 127 µM) | > 100 | > 100 | 100 (≈ 254 µM) | 100 (≈ 254 µM) | 12.5 (≈ 31.7 µM) | 25 (≈ 63.4 µM) | 12.5 (≈ 31.7 µM) | 25 (≈ 63.4 µM) | 25 (≈ 63.4 µM) | 25 (≈ 63.4 µM) | 25 (≈ 63.4 µM) | 50 (≈ 127 µM) | > 100 | > 500 | 105 | LD50 [20, 22]: 3000 mg/kg
CCn1cc(C(=O)O)c(=O)c2ccc(C)nc21 [Compound 13, 1-ethyl-1,4-dihydro-7-methyl-4-one-1,8-naphthyridine-3-carboxylic acid, reference compound] | 6.3 (≈ 27.1 µM) | 12.5 (≈ 53.8 µM) | 50 (≈ 215 µM) | 50 (≈ 215 µM) | 50 (≈ 215 µM) | > 100 | > 100 | > 100 | > 100 | 3.2 (≈ 13.8 µM) | 6.3 (≈ 27.1 µM) | 12.5 (≈ 53.8 µM) | 6.3 (≈ 27.1 µM) | 12.5 (≈ 53.8 µM) | 12.5 (≈ 53.8 µM) | 6.3 (≈ 27.1 µM) | 25 (≈ 108 µM) | > 100 | > 500 | – | –
